Data as given in patent publication US9181234B2, “Antibacterial compounds” (priority 2010, dated 2015).
≈ marks a conversion by molar mass, not a printed value.

What was measured:
physchem = settings: pH 7.4, aqueous buffer, kinetic from dmso stock
Method in brief: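 DMSO doubling dilutions were diluted twenty-fold into 100 mM citrate (pH 4), PBS (pH 7.4) or carbonate-bicarbonate (pH 9). After 24 h equilibration at room temperature, absorbance was read at 620 nm. The reported value is the highest concentration without measurable precipitate.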

[1] = tested on: Staphylococcus aureus (Isolate ID ATCC 29213); assay: Antibacterial activity, MIC, S. aureus; format: cell-based; settings: Staphylococcus aureus, ATCC29213, Gram positive strain; broth microdilution or agar dilution
Method in brief: (§1)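 Readout is the MIC, established according to CLSI standard M7-A7 using either agar dilution or broth microdilution.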

[2] = tested on: Streptococcus pyogenes (Isolate ID ATCC 51339); assay: Antibacterial activity, MIC, S. pyogenes; format: cell-based; settings: Streptococcus pyogenes, ATCC51339, Gram positive strain; broth microdilution or agar dilution
Method in brief: as §1

[3] = tested on: Haemophilus influenzae (Isolate ID ATCC 49247); assay: Antibacterial activity, MIC, H. influenzae; format: cell-based; settings: Haemophilus influenzae, ATCC49247; Gram negative strain; broth microdilution or agar dilution
Method in brief: as §1

[4] = tested on: Enterococcus faecalis (Isolate ID ATCC 29212); assay: Antibacterial activity, MIC, E. faecalis; format: cell-based; settings: Enterococcus faecalis, ATCC29212; Gram positive strain; broth microdilution or agar dilution
Method: Bacterial Assay: Determination of Antibacterial Activity
Compounds of the invention were tested for antimicrobial activity by susceptibility testing in liquid or on solid media. MICs for compounds against each strain were determined by the broth microdilution or agar dilution method according to the guidelines of the Clinical Laboratories and Standards Institute, formerly the National Committee for Clinical Laboratory Standards (Clinical Laboratories and Standards Institute. Methods for Dilution Antimicrobial Susceptibility Tests for Bacteria That Grow Aerobically; Approved Standard—Seventh Edition. Document M7-A7. CLSI, Wayne, Pa., 2006; Clinical Laboratories and Standards Institute. The gram positive bacterial strains tested include S. aureus (Staphylococcus aureus (Isolate ID ATCC 29213)), E. faecalis (Enterococcus faecalis (Isolate ID ATCC 29212)) and S. pyogenes (Streptococcus pyogenes (Isolate ID ATCC 51339)). The gram negative bacterial strains tested include H. influenzae (Haemophilus influenzae (Isolate ID ATCC 49247))

[5] = Solubility Range (maximum solubility)

| SMILES | solubility at 24 h (physchem; Solubility (pH 7.4)) | solubility at 24 h (physchem; Solubility Range) | MIC [1] | MIC [2] | MIC [3] | MIC [4] | solubility at 24 h (physchem; Max Solubility) | solubility at 24 h (physchem; [5]) |
| --- | --- | --- | --- | --- | --- | --- | --- | --- |
| CCNC(=O)Nc1nc2cc(-c3cnc(N4CCC(C)(C(=O)O)CC4)nc3)cc(-c3ncccc3F)c2s1 [Compound 18] | ≥ 800 µg/mL | > 800 µg/mL | ≤ 0.25 µg/mL | ≤ 0.25 µg/mL | 1 to 16 µg/mL (≈ 1.87 to 29.9 µM) | ≤ 0.25 µg/mL | ≥ 800 µg/mL | > 800 µg/mL |
| CCNC(=O)Nc1nc2cc(-c3cnc(N4CCC(C)(C(=O)O)CC4)nc3)cc(-c3cncs3)c2s1 [Compound 20] | ≥ 800 µg/mL | > 800 µg/mL | 0.25 to 1 µg/mL (≈ 0.477 to 1.91 µM) | ≤ 0.25 µg/mL | 1 to 16 µg/mL (≈ 1.91 to 30.6 µM) | ≤ 0.25 µg/mL |  |  |
| CCCCC#Cc1cc(-c2cnc(N3CCC(C)(C(=O)O)CC3)nc2)cc2nc(NC(=O)NCC)sc12 [Compound 22] | ≥ 800 µg/mL | > 800 µg/mL | 0.25 to 1 µg/mL (≈ 0.48 to 1.92 µM) | 1 to 16 µg/mL (≈ 1.92 to 30.7 µM) | > 16 µg/mL | ≤ 0.25 µg/mL |  |  |
| CCNC(=O)Nc1nc2cc(-c3cnc(N4CCC(C)(C(=O)O)CC4)nc3)cc(-c3csc(OC)n3)c2s1 [Compound 23, 1-[5-[2-(ethylcarbamoylamino)-7-(2-methoxythiazol-4-yl)-1,3-benzothiazol-5-yl]pyrimidin-2-yl]-4-methyl-piperidine-4-carboxylic acid] | ≥ 800 µg/mL | > 800 µg/mL | ≤ 0.25 µg/mL | ≤ 0.25 µg/mL | 1 to 16 µg/mL (≈ 1.81 to 28.9 µM) | ≤ 0.25 µg/mL |  |  |
| CCNC(=O)Nc1nc2cc(-c3cnc(N4CCC(C)(C(=O)O)CC4)nc3)cc(O)c2s1 [Compound 26, 1-[5-[2-(ethylcarbamoylamino)-7-hydroxy-1,3-benzothiazol-5-yl]pyrimidin-2-yl]-4-methyl-piperidine-4-carboxylic acid] | ≥ 800 µg/mL | > 800 µg/mL | > 16 µg/mL | 1 to 16 µg/mL (≈ 2.19 to 35 µM) | > 16 µg/mL | 1 to 16 µg/mL (≈ 2.19 to 35 µM) |  |  |
| CCNC(=O)Nc1nc2cc(-c3cnc(N4CCC(C)(C(=O)O)CC4)nc3)cc(-c3nc(CO)cs3)c2s1 [Compound 27] | ≥ 800 µg/mL | > 800 µg/mL | 1 to 16 µg/mL (≈ 1.81 to 28.9 µM) | ≤ 0.25 µg/mL | 1 to 16 µg/mL (≈ 1.81 to 28.9 µM) | ≤ 0.25 µg/mL |  |  |
| C#Cc1cc(-c2cnc(N3CCC(C)(C(=O)O)CC3)nc2)cc2nc(NC(=O)NCC)sc12 [Compound 28] | ≥ 800 µg/mL | > 800 µg/mL | 0.25 to 1 µg/mL (≈ 0.538 to 2.15 µM) | 0.25 to 1 µg/mL (≈ 0.538 to 2.15 µM) | 1 to 16 µg/mL (≈ 2.15 to 34.4 µM) | ≤ 0.25 µg/mL |  |  |
| CCNC(=O)Nc1nc2cc(-c3cnc(N4CCC(C)(C(=O)O)CC4)nc3)cc(-n3cccn3)c2s1 [Compound 29] | ≥ 800 µg/mL | > 800 µg/mL | 0.25 to 1 µg/mL (≈ 0.493 to 1.97 µM) | 0.25 to 1 µg/mL (≈ 0.493 to 1.97 µM) | 1 to 16 µg/mL (≈ 1.97 to 31.6 µM) | ≤ 0.25 µg/mL |  |  |
| CCNC(=O)Nc1nc2cc(-c3cnc(N4CCC(C)(C(=O)O)CC4)nc3)cc(-c3cccn3C)c2s1 [Compound 30] | ≥ 800 µg/mL | > 800 µg/mL | 0.25 to 1 µg/mL (≈ 0.481 to 1.92 µM) | 0.25 to 1 µg/mL (≈ 0.481 to 1.92 µM) | 1 to 16 µg/mL (≈ 1.92 to 30.8 µM) | ≤ 0.25 µg/mL |  |  |

More lines, now with the values ahead:

| solubility at 24 h (physchem; Solubility (pH 7.4)) | solubility at 24 h (physchem; Solubility Range) | MIC [1] | MIC [2] | MIC [3] | MIC [4] | solubility at 24 h (physchem; Max Solubility) | solubility at 24 h (physchem; [5]) | SMILES |
| --- | --- | --- | --- | --- | --- | --- | --- | --- |
| ≥ 800 µg/mL | > 800 µg/mL | ≤ 0.25 µg/mL | ≤ 0.25 µg/mL | 0.25 to 1 µg/mL (≈ 0.457 to 1.83 µM) | ≤ 0.25 µg/mL |  |  | CCNC(=O)Nc1nc2cc(-c3cnc(N4CCC(C)(C(=O)O)CC4)nc3)cc(-c3cc(OC)ccn3)c2s1 [Compound 17] |
| ≥ 800 µg/mL | > 800 µg/mL | 0.25 to 1 µg/mL (≈ 0.493 to 1.97 µM) | ≤ 0.25 µg/mL | 1 to 16 µg/mL (≈ 1.97 to 31.5 µM) | ≤ 0.25 µg/mL |  |  | CCNC(=O)Nc1nc2cc(-c3cnc(N4CCC(C)(C(=O)O)CC4)nc3)cc(-c3ncco3)c2s1 [Compound 19] |
| ≥ 800 µg/mL | > 800 µg/mL | 1 to 16 µg/mL (≈ 1.92 to 30.7 µM) | 0.25 to 1 µg/mL (≈ 0.48 to 1.92 µM) | 1 to 16 µg/mL (≈ 1.92 to 30.7 µM) | ≤ 0.25 µg/mL |  |  | CCNC(=O)Nc1nc2cc(-c3cnc(N4CCC(C)(C(=O)O)CC4)nc3)cc(-c3cnn(C)c3)c2s1 [Compound 24] |
| ≥ 800 µg/mL | > 800 µg/mL | > 16 µg/mL | 0.25 to 1 µg/mL (≈ 0.493 to 1.97 µM) | > 16 µg/mL | 0.25 to 1 µg/mL (≈ 0.493 to 1.97 µM) |  |  | CCNC(=O)Nc1nc2cc(-c3cnc(N4CCC(C)(C(=O)O)CC4)nc3)cc(-c3cn[nH]c3)c2s1 [Compound 25] |
| ≥ 800 µg/mL | > 800 µg/mL | ≤ 0.25 µg/mL | ≤ 0.25 µg/mL | 0.25 to 1 µg/mL (≈ 0.47 to 1.88 µM) | ≤ 0.25 µg/mL | ≥ 800 µg/mL | > 800 µg/mL | CCNC(=O)Nc1nc2cc(-c3cnc(N4CCC(C)(C(=O)O)CC4)nc3)cc(-c3ccc(C)cn3)c2s1 [Compound 31] |
|  |  | > 16 µg/mL | 1 to 16 µg/mL (≈ 1.82 to 29.2 µM) | > 16 µg/mL | 1 to 16 µg/mL (≈ 1.82 to 29.2 µM) |  |  | CCNC(=O)Nc1nc2cc(-c3cnc(N4CCC(CC)(C(=O)O)CC4)nc3)cc(-c3cc(=O)[nH]cn3)c2s1 [Compound 111] |
